These results are taken from US20110082098A1, “NOVOBIOCIN ANALOGUES AND TREATMENT OF POLYCYSTIC KIDNEY DISEASE” (UNIVERSITY OF KANSAS, priority 2009, published 2011).

Experiment [1] deals with ERK 1/2. Description: Inhibition of p-ERK in EGF stimulated ADPKD cells by Western blot. It is filed as cell-based, human. Conditions: for decrease in P-Erk (phosphorylation of ERK 1/2): EGF-stimulated ADPKD cells. The procedure:
(§1) Human ADPKD cells were plated at a density of 1×10^5 cells per well in medium containing 1% FBS in a 6-well plate. Cells were serum-starved for 24 hours and treated with 25 ng/ml EGF to stimulate cell proliferation, then treated with increasing concentrations of KU-174. As a control for inhibition of the mTOR pathway, ADPKD cells were stimulated by EGF and treated with Rapamycin or LY294002. After 24 or 48 hours, cytoplasmic protein extracts were prepared by lysing cells in ice-cold lysis buffer (10 mM Tris-Cl pH 7.5, 150 mM NaCl, 2 mM EDTA pH 8.0, 1% Triton X-100, 0.5% NP-40, 25 mM glycerol 2-phosphate, 1 mM sodium orthovanadate, 1 mM phenylmethylsulfonyl fluoride, and 0.1% v/v Sigma protease inhibitor cocktail). Nuclei and other Triton-insoluble components were removed by high speed centrifugation. Protein concentration was measured using the Pierce BCA assay kit. 20 μg total protein was boiled with SDS sample buffer and fractionated on 7.5, 10 or 12.5% SDS-PAGE gels. Proteins were transferred to PVDF membranes and non-specific binding blocked with 5% powdered milk in TBS-T (10 mM Tris-Cl pH 7.5, 150 mM NaCl, and 0.1% Tween 20) for 1 h at room temperature. Blocked membranes were incubated with primary antibodies in 5% powdered milk or 5% BSA (for phospho-proteins) in TBS-T overnight at 4° C. Membranes were then washed three times with TBS-T and incubated with alkaline phosphatase-conjugated secondary antibodies in 5% milk in TBS-T for 30 min at room temperature. The membranes were washed three times with TBS-T, and protein bands were visualized using the CDP-star detection reagent (GE healthcare). Intensity was detected and quantitatively analyzed by the Fluor-S MAX multi-imager system (Bio-Rad).
A general note: A western blot detects proteins with antibodies after separation by electrophoresis.

In experiment [2] the test system is Pkd1+/− mouse metanephric kidneys. Description: Metanephric organ culture. The settings on record: embryonic day 15.5 kidneys, 100 μM cAMP, 10 μM KU-174, four days. The source says: Pkd1^m1Bei mice were obtained from the Mutant Mouse Regional Resource Center (University of North Carolina, Chapel Hill, N.C.) and were stabilized onto a C57BL/6 background (>10 backcrosses). This mouse has a point mutation (T to G at 9248 bp) that causes an M to R substitution that affects the first transmembrane domain of polycystin-1 as described by Herron, B. J., et al., Efficient generation and mapping of recessive developmental mutations using ENU mutagenesis. Nat Genet, 2002. 30(2): p. 185-9.
Mouse metanephric kidneys were cultured according to methods described in Magenheimer, B. S., et al., Early embryonic renal tubules of wild-type and polycystic kidney disease kidneys respond to cAMP stimulation with cystic fibrosis transmembrane conductance regulator/Na(+),K(+),2Cl(−) Co-transporter-dependent cystic dilation. J Am Soc Nephrol, 2006. 17(12): p. 3424-37. Metanephroi were dissected from Pkd1+/− embryonic mice and placed on transparent Falcon […] cell culture inserts. […] Upon culturing (day 0) and approximately 24 h later (day 1) and each day after (days 2 to 4), kidneys were photographed using a 2× or 4× objective, and the images were acquired and analyzed using the analySIS imaging program (Soft Imaging System, Munster, Germany). […]

Experiment [3] concerns Hsp90 client proteins CFTR, C-Raf, cdk4, ErbB2 and Akt. Description: Hsp90 client protein levels in EGF stimulated human ADPKD cells by Western blot. It is filed as cell-based. How it is done:
as §1
Proteins from 20 μg total cell lysate were analyzed by Western blotting. Blots were probed with antibodies against Hsp90 and client proteins CFTR, C-Raf, cdk4, ErbB2 and Akt. GAPDH served as the internal control.

In experiment [4] the test system is human ADPKD cells. Description: Microcyst assay in collagen gel matrix. In kind it is cell-based. The procedure:
Microcyst assay was performed as described previously by Yamaguchi, T., et al., Calcium restores a normal proliferation phenotype in human polycystic kidney disease epithelial cells. J Am Soc Nephrol, 2006. 17(1): p. 178-87. Primary cultures of human ADPKD cells (4×10^3 cells/well) were dispersed within an ice-cold type I collagen matrix (Vitrogen; Collagen Corp., Palo Alto, Calif.) in wells of a 96-well culture plate. Warming the plate to 37° C. caused polymerization of the collagen, trapping the cells within the gel. A defined medium (DMEM/F12 with ITS, 5×10^−8M hydrocortisone, and 5×10^−5 M triiodothyronine) supplemented with 5 μM forskolin and 5 ng/ml EGF was added for 3 days to initiate cyst growth. Forskolin (FSK) is a small molecule agonist of adenylyl cyclase, the enzyme that makes cAMP. Thus, FSK treatment of cells increases the levels of intracellular cAMP. Fresh media containing EGF and forskolin plus 1 μM or 5 μM KU-174 were added for an additional 5-7 days. […] Gels containing cysts were fixed in 1% formaldehyde and cyst diameters were measured using a morphometric analysis system. Outer diameters of cross-sectional images of spherical cysts with distinct lumens were measured using an inverted microscope with a digital camera and video analysis software. The total surface area (SA) of the cysts within each well was calculated from the individual cyst diameters (cysts≧100 μm). KU-174 inhibits microcyst formation by ADPKD cells in a collagen gel matrix.

In experiment [5] the test system is mTOR pathway. Description: Inhibition of mTOR pathway in EGF stimulated ADPKD cells by Western blot. It is filed as cell-based, human. The procedure:
as §1
Human ADPKD cells were plated at a density of 1×10^5 cells per well in medium containing 1% FBS in a 6-well plate. Cells were serum-starved for 24 hours and treated with 25 ng/ml EGF to stimulate cell proliferation, then treated with increasing concentrations of KU-174. As a control for inhibition of the mTOR pathway, ADPKD cells were stimulated by EGF and treated with Rapamycin or LY294002, (an inhibitor of phosphoinositide-3-kinases, PI3Ks). After 24 or 48 hours, cells were lysed and 20 μg total cell lysate analyzed by Western blotting. Blots were probed with antibodies against p-Akt (S473), Akt, p-TSC2 (S939), TSC2, p-mTOR (S2448), mTOR, p-S6K (T412 and T389; phospho-p70 S6 Kinase phosphorylated at T389 or T412) and S6K (p70 S6 kinase; p70S6K1). […] In the 1 μM KU-174 treated cell lysates, p-Akt was decreased by 64%, p-mTOR by 56%, and p-S6K isoforms p85 and p70 by 75% compared with control EGF treated cells and normalized with respect to the corresponding total protein (n=3). There was no change in p-TSC2 levels. […] The figures represent results from independent experiments using primary human ADPKD cells from three different kidneys.

For experiment [6], the system named is Human ADPKD cyst-lining epithelial cells. Put plainly: Cell proliferation assay (Promega Cell Titer 96 MTT). In kind it is cell-based. Conditions: 0.1, 0.5, 1 uM KU-174 for 72 h. How it is done:
Primary cultures of human ADPKD cyst-lining epithelial cells were established as described in Yamaguchi, T., et al., Calcium restores a normal proliferation phenotype in human polycystic kidney disease epithelial cells. J Am Soc Nephrol, 2006. 17(1): p. 178-87. Cystic tissue from ADPKD kidneys were minced and digested overnight in DMEM/F12 (1:1) mixture that contained 220 IU/ml type IV collagenase and 100 IU/ml penicillin G and 0.1 mg/ml streptomycin (P/S) (13). Collagenase digestion was stopped by the addition of FBS. […]
The novobiocin analog KU-174 was studied to determine the effect on cAMP and EGF-stimulated proliferation of ADPKD cyst-lining epithelial cells. Cell proliferation was determined by the Promega Cell Titer 96 MTT assay method as described in Yamaguchi, T., et al., Calcium restores a normal proliferation phenotype in human polycystic kidney disease epithelial cells. […] After 72 hours of treatment, cell proliferation was measured by adding the MTT assay reagent and stopping the reaction four hours later. Absorbance was read on a spectrophotometer at 570 nm. Optical densities were measured using a spectrophotometer. In each group, results were expressed as a percentage of the control group (not treated with KU-174).

Experiment [7] has as its system murine pkd1-null cells. Conditions: cited from earlier work.
Experiment [8] relates to Pkd1−/− embryonic mice. The settings on record: Pkd1−/− embryonic mice with ADPKD; cited from earlier work.
The mark [9] stands for this setting: 48 h, 1 μM KU-174, compared to control EGF treated cells.

“Also recorded” adds a separate entry of the source.

Take `COc1cccc(-c2cc(C(=O)Nc3cc4ccc(O[C@@H]5OC(C)(C)[C@H](OC)[C@@H](O)[C@H]5O)c(OC)c4oc3=O)ccc2OC)c1` [KU-174, N-(7-((2S,3R,4S,5R)-3,4-dihydroxy-5-methoxy-6,6-dimethyltetrahydro-2H-pyran-2-yloxy)-8-methoxy-2-oxo-2H-chromen-3-yl)-3′,6-dimethoxybiphenyl-3-carboxamide]: in experiment [1] (0.5 μM KU-174, 48 h), the “decrease in P-Erk (phosphorylation of ERK 1/2)” value is on record as 70%. The “total Erk levels” value in experiment [1] (0.5 μM and 1 μM KU-174, EGF-stimulated ADPKD cells) is reported as “remained virtually unchanged”. Further, the “decrease in P-Erk (phosphorylation of ERK 1/2)” value in experiment [1] (1 μM KU-174, 48 h) worked out at 80%. In experiment [1] (increasing concentrations of KU-174, EGF-stimulated ADPKD cells), the “inhibition of p-ERK” value was “dose-dependent inhibition”. Besides, the “cyst burden / cyst formation in cAMP-treated metanephric kidneys” value in experiment [2] is “reduces the cyst burden; also recorded: reduction in cyst burden; also recorded: reduced cyst formation”. In experiment [3] (24 h, 1 μM KU-174), the “total levels of C-Raf” value is on record as “decreased” and the “total levels of CFTR” value is “decreased”. The “all the client proteins examined (CFTR, C-Raf, cdk4, ErbB2)” value in experiment [3] (48 h, both 0.5 and 1 μM KU-174) is “effective in decreasing”. Besides, the “levels of the Hsp90 client proteins CFTR, ErbB2, c-Raf and Cdk4” value in experiment [3] (dose and time-dependent manner, ADPKD cells) is “decreases”. Besides, the “inhibition in cyst growth (total cyst surface area per well)” value in experiment [4] (1 μM KU-174, EGF and forskolin, p<0.01) was “significant inhibition”. Further, the “inhibition of cyst-formation induced by EGF and forskolin” value in experiment [4] (1 μM KU-174, n=6) was “more than 3 fold”. In experiment [4] (5 μM KU-174, EGF and forskolin, p<0.01), the cyst formation entry was “completely eliminated”. In addition, the “microcyst formation by ADPKD cells in a collagen gel matrix” value in experiment [4] (EGF and forskolin, 1 μM or 5 μM KU-174) is listed as “dose-dependent inhibition; also recorded: reduces; also recorded: inhibits”. Moreover, the p-S6K result in experiment [5] (24 h, 1 μM KU-174) is given as “slight decrease”. The “change in phosphoproteins (P-mTOR, P-Akt, P-TSC2, P-S6K)” value in experiment [5] (24 h of treatment, 50 nM to 1 μM KU-174, EGF-stimulated ADPKD cells) was “no change”. Also, in experiment [5] (setting [9]), the “decrease in P-Akt (S473)” value worked out at 64%; the “decrease in P-S6K (isoforms p85 and p70)” value came out at 75%; the “decrease in P-mTOR (S2448)” value stood at 56%. The decreasing the phosphoproteins entry in experiment [5] (48 h, both 0.5 and 1 μM KU-174) is listed as “effective”. The “P-TSC2 (S939) levels” value in experiment [5] (EGF-stimulated ADPKD cells, KU-174 up to 1 μM, 48 h) is “no change”. In experiment [5] (at the concentrations examined (up to 1 μM KU-174)), the “total Akt levels” value was “did not appear to decrease”. The “proliferation of EGF-stimulated ADPKD cyst-lining epithelial cells (MTT assay)” value in experiment [6] (25 ng/ml EGF) is “dose-dependent decrease; also recorded: significantly inhibited”. Further, in experiment [6] (100 μM cAMP), the “proliferation of cAMP-stimulated ADPKD cyst-lining epithelial cells (MTT assay)” value was “dose-dependent decrease; also recorded: significantly inhibited”.
For `CC(C)[C@]12O[C@H]1[C@@H]1O[C@]13[C@]1(O[C@H]1C[C@H]1C4=C(CC[C@@]13C)C(=O)OC4)[C@@H]2O` [Triptolide], in experiment [7], the cell growth result is listed as “cause cell growth arrest”. In addition, the cyst formation entry in experiment [8] was “inhibit cyst formation”.
